These results are taken from patent US10272056B2, “Treatment for mitochondrial diseases” (The George Washington University a Congressionally …, priority 2015, dated 2019).

Assay [1] concerns E17.5 hippocampal neurons. The assay is described as follows: Mitochondrial mass in neurons (mito-GFP, quantitative immunohistochemistry COXVα/tubulin). In kind it is cell-based. The note with it: NaBt-treated E17.5 neurons; control 7%. The source says:
(§1) FIG. 7A-7F show images from microscopy and graphs showing NaBt increases mitochondrial mass. (A) Live cell confocal microscopy of E17.5 hippocampal neurons; high magnification in inset; scale bar=5 (B) Quantitative analysis of the mitochondrial biomass in E17.5 neurons using an anti-CoxVα antibody; *p<0.001. (C) Live cell confocal microscopy of PC12-ND6 cells; high magnification in inset; scale bar=5 (D) Flow cytometric analysis of mitochondrial mass; *p<0.001. (E) Confocal microscopy of E17.5 brains from E12.5 pregnant dams treated with PBS (sham) or NaBt; scale bar=20 (F) Quantitative analysis of mitochondrial mass; *p<0.001.
Experimental approaches. Five distinct molecular tools were used to investigate mitochondrial biogenesis: 1) the mitochondrial-specific dyes, MitoTracker® Green (MTG) and MitoTracker® Red (MTR); 2) the mito-GFP or mito-dsRed vector to fluorescently label mitochondria; 3) antibodies against mtDNA, COXVα, or SOD2; 4) the fluorescent PicoGreen® dye labeling mtDNA; and 5) quantitative PCR to determine mtDNA copy number.
The effect of NaBt was investigated in embryonic neuronal progenitor cells, E17.5 hippocampal neurons, which were transfected with the mito-GFP vector and then exposed to various concentrations of NaBt. […] Therefore, all subsequent treatment of E17.5 hippocampal neurons with NaBt was performed in the presence of 2 mM. […]

In assay [2] the test system is E17.5 neurons. The assay is described as follows: In vivo mitochondrial mass of E17.5 brains from treated pregnant dams. On the set-up: species or system mice. The note with it: E12.5 pregnant dams, NaBt 1.2 g/Kg intraperitoneally vs PBS.
Text: as §1
Experimental paradigms. These are: 1) E17.5 differentiating hippocampal neurons expressing NeuroD6; 2) the PC12-NeuroD6 neuronal cell line recapitulating the early stages of differentiation; 3) E12.5 timed-pregnant dams treated intraperitoneally with NaBt (1.2 g/Kg) or PBS; and 4) cultured primary skin fibroblasts isolated from two MELAS patients and a healthy subject. Patient fibroblasts are the most suitable system to investigate the therapeutic potential of the butyrate derivatives (NaBt, TBN, and AN9) within the context of the patient's nuclear background and heteroplasmy, as MELAS animal models have not been generated due to polyploidy of the mt genome, heteroplasmic load, and influence of the nuclear background on MELAS phenotypic variability. […]

Assay [3] concerns neuronal cells. The assay can be described thus: Live cell Mg2+-based ATP assay. Particulars: NaBt-treated cells. Here is the method:
FIG. 9A-9C are graphs and images from microscopy showing that NaBt enhances mitochondrial bioenergetics. (A) Flow cytometric analysis of Δψm; *p<0.001. (B) ATP levels in live cells using a Mg^2+-based assay; *p<0.001. (C) Electron microscopy of mitochondria in control and NaBt-treated cells; scale bar=200 nm.
NaBt increases mitochondrial membrane potential (Δψm) and ATP levels. The MTR-based data raised the question: could NaBt also enhance mitochondrial bioenergetics? Δψm was assessed by live cell confocal microscopy and flow cytometry using the TMRM dye, which accumulates in the mitochondrial matrix in a Δψm-dependent fashion. A 1.5-fold increase in Δψm in NaBt-treated cells was observed (FIG. 9A). To test whether enhanced Δψm led to increased ATP output, ATP levels were monitored using the live cell Mg^2+-based ATP assay, which is compatible with the TMRM dye, allowing simultaneous recordings. A 1.6-fold increase in ATP levels in NaBt-treated cells was observed (FIG. 9B), in line with the MTR- and TMRM-based findings and the elongated mitochondrial morphology.

For assay [4], the system named is PC12-ND6 cells. The assay can be described thus: mtDNA replication (PicoGreen staining, quantitative PCR). In kind it is cell-based. The note with it: confirmed by quantitative PCR. The source says: (§2) FIG. 11A-11D are images from microscopy and graphs showing NaBt promotes mtDNA replication via the NRF-1/Tfam axis. (A) Confocal analysis of mtDNA foci; scale bar=5 (B) Quantitative analysis of mtDNA copy number by PCR; *p<0.001. (C, D) Quantitative immunoblot analysis of NRF-1 and Tfam; *p<0.001.
(§3) NaBt enhances mtDNA replication via the PGC1α-mediated NRF-1/Tfam axis. It was investigated whether NaBt enhanced mtDNA replication using the PicoGreen® dye to label mtDNA. PC12-ND6 cells were transfected with the mito-dsRed vector prior to NaBt treatment followed by PicoGreen® staining. […] To corroborate enhanced mitochondrial biogenesis, two key target genes of PGC1α were examined, the NRF-1 transcription factor and its direct target gene Tfam, both essential for mitochondrial biogenesis. […] The findings confirm the NaBt-mediated modulation of mitochondrial biogenesis and mtDNA replication in neuronal cells.

Assay [5] has as its system Tfam. The assay can be described thus: Quantitative immunoblot analysis of Tfam. The note with it: NaBt treatment, PC12-ND6. In kind it is cell-based.
Text: as §2, §3

Assay [6] concerns MELAS fibroblasts. The assay can be described thus: Morphometric analysis of mitochondrial connectivity (Image J). The format is cell-based, human. Particulars: Image J analysis of MTG-labeled fibroblasts. The method, then:
FIG. 18 is a graph showing that butyrate and its derivatives rescue the mitochondrial dynamics and connectivity in MELAS fibroblasts.
Butyrates rescue the mitochondrial mass, morphology, networking, and membrane potential in MELAS fibroblasts. Skin fibroblasts from two MELAS patients and from a healthy subject as a control were used. Dose-dependent analyses of butyrates was performed to determine their best concentrations for eliciting an optimal mitochondrial response without cellular toxicity. Healthy and MELAS fibroblasts were treated with PBS, NaBt (2.5 mM), TBN (1.5 mM), or AN9 (300 μM) for three days before labeling with the MTG dye for live cell confocal analysis.

With `CCCC(=O)[O-].[Na+]` [NaBt, sodium butyrate], the “mitochondria as percent of the cell volume” value in assay [1] came to 18%. Besides, in assay [2], the “increase of in vivo mitochondrial mass of E17.5 neurons” value is given as 1.6 fold. Further, the “increase in ATP levels” value in assay [3] is 1.6 fold. In addition, in assay [4], the mtDNA foci result is “increased number of mtDNA foci”. In assay [5], the Tfam expression entry was “induced Tfam expression on day 2”. For the same compound, the connectivity among mitochondria entry in assay [6] is listed as “rescue the connectivity among mitochondria”.
